Reference: PMC5592720 (Planta medica, 2013)
Where “and” joins values, the source holds several entries; their conditions need not be identical. Equal values may be shown once. Read-outs that look alike come from different tables or passages of the source.

Legend:
Caco-2 cell monolayers = assay: in vitro; type: in vitro ADME, human; conditions: for % Transport Absorptive direction (A–B) / % Transport Secretory direction (A–B): Caco-2 monolayers, 1% HPβCD, 2 h; for Intestinal permeability across Caco-2 monolayers (rating): relative to atenolol and propranolol
[1] = Stability in simulated gastric fluid; type: in vitro ADME; conditions: for % RD of dioscin depletion / % RD of diosgenin depletion: RD = relative difference; for Degradation (depletion) in SGF: SGF pH 1.2, end of incubation (b9 prints 3-hour incubation)
[2] = Stability in simulated intestinal fluid; type: in vitro ADME; conditions: for % RD of dioscin depletion / % RD of diosgenin depletion: RD = relative difference
in vitro = in vitro ADME, human; conditions: human, Caco-2
[3] = Phase I metabolic stability in human liver microsomes; type: in vitro ADME; conditions: pooled human liver microsomes; for Stability in HLM (Phase I): up to 180 min, words
[4] = Phase II metabolic stability in S9 fractions; type: in vitro ADME, human
CYP2D6 [5] = molecular target: T1, CYP2D6 (Homo sapiens, UniProt P10635)
T1 sequence (P10635 whole entry): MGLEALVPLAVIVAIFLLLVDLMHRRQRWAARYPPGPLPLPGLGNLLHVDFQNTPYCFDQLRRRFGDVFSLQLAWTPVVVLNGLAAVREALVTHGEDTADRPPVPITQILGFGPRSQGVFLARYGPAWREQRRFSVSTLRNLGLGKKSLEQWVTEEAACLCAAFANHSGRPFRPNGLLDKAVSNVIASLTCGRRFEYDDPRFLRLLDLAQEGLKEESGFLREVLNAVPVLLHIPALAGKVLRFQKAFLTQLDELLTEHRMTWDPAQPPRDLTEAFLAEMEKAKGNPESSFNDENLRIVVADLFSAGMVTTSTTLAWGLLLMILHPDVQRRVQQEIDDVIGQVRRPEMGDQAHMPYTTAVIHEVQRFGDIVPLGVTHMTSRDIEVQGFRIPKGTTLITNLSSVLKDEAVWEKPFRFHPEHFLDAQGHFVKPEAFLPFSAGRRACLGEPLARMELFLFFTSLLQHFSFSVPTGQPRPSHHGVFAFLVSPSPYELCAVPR

[6] = rat, cited from earlier work
CYP2D6 [7] = molecular target: T1, CYP2D6; assay: biochemical
CYP3A4 = CYP3A4 (Homo sapiens, UniProt P08684); assay: Inhibition of cytochrome P450 3A4
CYP3A4, sequence (P08684 whole entry): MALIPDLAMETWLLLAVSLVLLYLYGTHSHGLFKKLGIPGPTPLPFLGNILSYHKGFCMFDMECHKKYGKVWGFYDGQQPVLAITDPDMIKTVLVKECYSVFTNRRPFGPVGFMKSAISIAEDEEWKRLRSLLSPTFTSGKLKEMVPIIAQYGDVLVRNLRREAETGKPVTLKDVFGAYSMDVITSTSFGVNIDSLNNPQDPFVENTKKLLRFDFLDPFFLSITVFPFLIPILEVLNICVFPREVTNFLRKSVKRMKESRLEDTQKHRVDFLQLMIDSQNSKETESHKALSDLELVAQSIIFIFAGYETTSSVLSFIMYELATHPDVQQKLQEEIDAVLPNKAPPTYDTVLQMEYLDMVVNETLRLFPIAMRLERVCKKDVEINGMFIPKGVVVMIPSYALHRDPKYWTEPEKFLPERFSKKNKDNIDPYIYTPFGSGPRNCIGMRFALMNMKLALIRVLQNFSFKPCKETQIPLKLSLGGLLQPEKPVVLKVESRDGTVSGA

CYP1A2 [8] = molecular target: T2, CYP1A2 (Homo sapiens, UniProt P05177); assay: Inhibition of cytochrome P450 1A2
T2 sequence (P05177 1-516): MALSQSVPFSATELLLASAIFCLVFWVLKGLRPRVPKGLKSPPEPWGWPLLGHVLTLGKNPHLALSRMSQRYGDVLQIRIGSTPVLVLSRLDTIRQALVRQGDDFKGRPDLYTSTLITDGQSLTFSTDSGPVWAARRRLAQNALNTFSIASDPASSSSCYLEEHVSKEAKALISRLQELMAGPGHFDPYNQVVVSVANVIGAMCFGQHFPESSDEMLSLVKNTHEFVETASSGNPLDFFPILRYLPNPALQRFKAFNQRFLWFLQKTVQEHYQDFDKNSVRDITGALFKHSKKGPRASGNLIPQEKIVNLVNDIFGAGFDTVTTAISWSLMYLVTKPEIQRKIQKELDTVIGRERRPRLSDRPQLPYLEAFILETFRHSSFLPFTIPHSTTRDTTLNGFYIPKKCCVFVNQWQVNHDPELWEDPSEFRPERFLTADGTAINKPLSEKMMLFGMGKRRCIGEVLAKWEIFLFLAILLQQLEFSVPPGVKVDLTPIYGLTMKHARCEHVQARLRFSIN

CYP2C19 [9] = molecular target: T3, CYP2C19 (Homo sapiens, UniProt P33261); assay: Inhibition of cytochrome P450 2C19; conditions: words; table prints 2C19
T3 sequence (P33261 whole entry): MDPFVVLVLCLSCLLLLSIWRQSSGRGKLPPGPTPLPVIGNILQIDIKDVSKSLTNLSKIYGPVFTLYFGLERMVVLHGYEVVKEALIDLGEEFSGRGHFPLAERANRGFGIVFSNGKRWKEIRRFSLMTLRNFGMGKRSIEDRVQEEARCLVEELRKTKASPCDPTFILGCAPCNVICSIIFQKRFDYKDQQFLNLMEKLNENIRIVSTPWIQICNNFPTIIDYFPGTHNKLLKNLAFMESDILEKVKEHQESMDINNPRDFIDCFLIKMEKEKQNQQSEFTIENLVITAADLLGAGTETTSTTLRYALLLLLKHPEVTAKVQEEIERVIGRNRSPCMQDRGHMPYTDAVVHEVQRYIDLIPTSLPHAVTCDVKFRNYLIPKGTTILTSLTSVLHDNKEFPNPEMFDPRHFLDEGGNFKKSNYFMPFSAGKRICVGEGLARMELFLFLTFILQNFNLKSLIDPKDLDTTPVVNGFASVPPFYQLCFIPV

CYP2C19 [10] = molecular target: T3, CYP2C19
CYP1A2 [11] = molecular target: T2, CYP1A2
[12] = cited from earlier work
[13] = IC50 3A4, cDNA baculovirus-expressed enzyme, fluorescence substrate
[14] = IC50 CYP3A4, text, catalytic activity of CYP3A4

lucifer yellow [Ly, reference compound]
Papp of Ly (monolayer integrity marker) (Caco-2 cell monolayers; Caco-2): 2.0 ± 0.5 × 10^−6 cm/s

C[C@@H]1CC[C@@]2(OC1)O[C@H]1C[C@H]3[C@@H]4CC=C5C[C@@H](O[C@@H]6O[C@H](CO)[C@@H](O[C@@H]7O[C@@H](C)[C@H](O)[C@@H](O)[C@H]7O)[C@H](O)[C@H]6O[C@@H]6O[C@@H](C)[C@H](O)[C@@H](O)[C@H]6O)CC[C@]5(C)[C@H]4CC[C@]3(C)[C@H]1[C@@H]2C [Dioscin, dioscin]
% RD of dioscin depletion ([1]; SGF pH 1.2, 30 min): 16.7% | % RD of dioscin depletion ([1]; SGF pH 1.2, 60 min): 23.6% | % RD of dioscin depletion ([1]; SGF pH 1.2, 120 min): 28.3% | Degradation (depletion) in SGF [1]: 28.3% | Amount of dioscin in SGF ([1]; SGF pH 1.2, incubation 0 min): 45.0 ± 4.0 µg/mL | Amount of dioscin in SGF ([1]; SGF pH 1.2, incubation 30 min): 37.5 ± 1.2 µg/mL | Amount of dioscin in SGF ([1]; SGF pH 1.2, incubation 60 min): 34.4 ± 1.1 µg/mL | Amount of dioscin in SGF ([1]; SGF pH 1.2, incubation 120 min): 32.3 ± 1.0 µg/mL | Dioscin still detected after incubation in SGF ([1]; after 3-hour incubation in SGF as printed): 71.7% | % RD of dioscin depletion ([2]; SIF pH 6.8, 60 min): 4.3% | % RD of dioscin depletion ([2]; SIF pH 6.8, 120 min): 9.9% | % RD of dioscin depletion ([2]; SIF pH 6.8, 180 min): 11.6% | Amount of dioscin in SIF ([2]; SIF pH 6.8, incubation 0 min): 41.1 ± 0.8 µg/mL | Amount of dioscin in SIF ([2]; SIF pH 6.8, incubation 60 min): 39.3 ± 1.0 µg/mL | Amount of dioscin in SIF ([2]; SIF pH 6.8, incubation 120 min): 37.0 ± 1.3 µg/mL | Amount of dioscin in SIF ([2]; SIF pH 6.8, incubation 180 min): 36.3 ± 1.1 µg/mL | Papp A→B at 2 h (in vitro): 15 ± 1 ×10⁻⁶ cm/s | Papp B→A at 2 h (in vitro): 20 ± 3 ×10⁻⁶ cm/s | efflux ratio at 120 min (in vitro): 1.3 | Efflux across Caco-2 monolayer (Caco-2 cell monolayers; Caco-2, words): no significant efflux | % Transport Absorptive direction (A–B) (Caco-2 cell monolayers): 7.5% and 7.5 ± 0.8% | % Transport Secretory direction (A–B) (Caco-2 cell monolayers): 11% and 11 ± 1% | Intestinal permeability across Caco-2 monolayers (rating) (Caco-2 cell monolayers): moderate | Compound detected after incubation in HLM ([3]; dioscin 50 μM): more than 50% | Stability in HLM (Phase I) [3]: relatively stable | Compound detected after incubation in S9 fractions ([4]; S9 fractions, dioscin 50 μM): more than 50% | Stability in S9 fraction (Phase II) ([4]; S9 fractions, words): relatively stable | Effect on CYP 2D6 (other CYP enzymes) (CYP2D6 [5]; words): not affected | Half-life after oral administration ([6]; oral): 1540 min | Oral bioavailability [6]: low oral bioavailability | IC50 (CYP2D6 [7]): > 50 µM | IC50 (CYP3A4; [13]): 33 ± 4 µM | IC50 (CYP3A4; [14]): 33.4 µM | IC50 (CYP1A2 [8]): > 50 µM | Effect on CYP 1A2 (other CYP enzymes) (CYP1A2 [8]; words): not affected | Effect on CYP 2C9 as printed in text (other CYP enzymes) (CYP2C19 [9]): not affected

C[C@@H]1CC[C@@]2(OC1)O[C@H]1C[C@H]3[C@@H]4CC=C5C[C@@H](O)CC[C@]5(C)[C@H]4CC[C@]3(C)[C@H]1[C@@H]2C [Diosgenin, diosgenin]
% RD of diosgenin depletion ([1]; SGF pH 1.2, 30 min): 3.62% | % RD of diosgenin depletion ([1]; SGF pH 1.2, 60 min): 8.31% | % RD of diosgenin depletion ([1]; SGF pH 1.2, 120 min): 8.59% | Degradation (depletion) in SGF [1]: < 10% and 8.5% | Amount of diosgenin in SGF ([1]; SGF pH 1.2, incubation 0 min): 52.4 ± 0.9 µg/mL | Amount of diosgenin in SGF ([1]; SGF pH 1.2, incubation 30 min): 50.5 ± 0.9 µg/mL | Amount of diosgenin in SGF ([1]; SGF pH 1.2, incubation 60 min): 48.0 ± 1.9 µg/mL | Amount of diosgenin in SGF ([1]; SGF pH 1.2, incubation 120 min): 47.9 ± 1.1 µg/mL | % RD of diosgenin depletion ([2]; SIF pH 6.8, 60 min): 1.28% | % RD of diosgenin depletion ([2]; SIF pH 6.8, 120 min): 4.21% | % RD of diosgenin depletion ([2]; SIF pH 6.8, 180 min): 4.80% | Degradation (disappearance) in SIF ([2]; SIF pH 6.8, after 3 hours of incubation): < 10% and 4.8% | Amount of diosgenin in SIF ([2]; SIF pH 6.8, incubation 0 min): 57.0 ± 1.0 µg/mL | Amount of diosgenin in SIF ([2]; SIF pH 6.8, incubation 60 min): 56.2 ± 1.9 µg/mL | Amount of diosgenin in SIF ([2]; SIF pH 6.8, incubation 120 min): 54.6 ± 2.0 µg/mL | Amount of diosgenin in SIF ([2]; SIF pH 6.8, incubation 180 min): 54.2 ± 3.2 µg/mL | Papp A→B at 2 h (in vitro): 9.6 ± 0.7 ×10⁻⁶ cm/s | Papp B→A at 2 h (in vitro): 48 ± 4 ×10⁻⁶ cm/s | efflux ratio at 120 min (in vitro): 5 | % Transport Absorptive direction (A–B) (Caco-2 cell monolayers): 3.8% and 3.8 ± 0.8% | % Transport Secretory direction (A–B) (Caco-2 cell monolayers): 21% and 21 ± 1% | Intestinal permeability across Caco-2 monolayers (rating) (Caco-2 cell monolayers): moderate | Diosgenin levels in apical or basolateral side (Caco-2 cell monolayers; transport buffer (HBSS) without HPβCD, after 2-hour incubation): no diosgenin levels were detected | Stability in HLM (Phase I) [3]: stable | Intrinsic clearance in S9 fraction ([4]; S9 fraction, diosgenin 100 μM): 7 mL/min/kg | half-life at 100 μM ([4]; human, s9): 11.3 min | Effect on CYP 2D6 (other CYP enzymes) (CYP2D6 [5]): not affected | Effect on CYP 2C9 as printed in text (other CYP enzymes) (CYP2C19 [10]): not affected | Effect on CYP 1A2 (other CYP enzymes) (CYP1A2 [11]): not affected | Aqueous solubility [12]: poor aqueous solubility | IC50 (CYP2D6 [7]): > 50 µM | IC50 (CYP3A4; [13]): 17 ± 4 µM | IC50 (CYP3A4; [14]): 21.7 µM | IC50 (CYP1A2 [8]): > 50 µM
